Test [1] deals with T1, Tyrosine-protein kinase receptor UFO (Homo sapiens, UniProt P30530).
T1 sequence (P30530 whole entry): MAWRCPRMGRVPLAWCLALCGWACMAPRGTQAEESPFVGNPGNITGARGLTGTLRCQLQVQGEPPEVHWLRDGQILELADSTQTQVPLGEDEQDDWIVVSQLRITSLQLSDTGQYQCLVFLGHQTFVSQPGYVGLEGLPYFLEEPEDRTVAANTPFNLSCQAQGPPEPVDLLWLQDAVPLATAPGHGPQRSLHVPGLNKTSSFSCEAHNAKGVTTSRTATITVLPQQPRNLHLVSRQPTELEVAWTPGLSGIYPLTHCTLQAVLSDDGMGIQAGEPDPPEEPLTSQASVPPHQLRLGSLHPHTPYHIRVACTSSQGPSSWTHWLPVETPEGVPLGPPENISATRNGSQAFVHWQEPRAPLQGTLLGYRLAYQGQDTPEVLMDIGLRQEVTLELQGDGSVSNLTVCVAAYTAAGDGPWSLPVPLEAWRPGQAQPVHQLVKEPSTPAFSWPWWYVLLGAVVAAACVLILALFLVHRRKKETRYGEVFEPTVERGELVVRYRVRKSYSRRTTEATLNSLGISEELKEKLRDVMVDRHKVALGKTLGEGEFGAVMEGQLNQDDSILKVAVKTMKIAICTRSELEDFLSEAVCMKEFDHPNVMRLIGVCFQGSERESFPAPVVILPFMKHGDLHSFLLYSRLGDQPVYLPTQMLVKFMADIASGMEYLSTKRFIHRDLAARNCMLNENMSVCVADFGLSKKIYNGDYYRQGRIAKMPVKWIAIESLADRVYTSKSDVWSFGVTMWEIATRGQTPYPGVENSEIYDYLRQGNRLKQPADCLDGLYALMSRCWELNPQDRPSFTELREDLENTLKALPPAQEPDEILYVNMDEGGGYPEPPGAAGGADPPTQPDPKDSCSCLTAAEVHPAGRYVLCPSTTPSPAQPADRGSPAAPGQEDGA

In test [2] the target is T2, Tyrosine-protein kinase Mer (Homo sapiens, UniProt Q12866).
T2 sequence (Q12866 whole entry): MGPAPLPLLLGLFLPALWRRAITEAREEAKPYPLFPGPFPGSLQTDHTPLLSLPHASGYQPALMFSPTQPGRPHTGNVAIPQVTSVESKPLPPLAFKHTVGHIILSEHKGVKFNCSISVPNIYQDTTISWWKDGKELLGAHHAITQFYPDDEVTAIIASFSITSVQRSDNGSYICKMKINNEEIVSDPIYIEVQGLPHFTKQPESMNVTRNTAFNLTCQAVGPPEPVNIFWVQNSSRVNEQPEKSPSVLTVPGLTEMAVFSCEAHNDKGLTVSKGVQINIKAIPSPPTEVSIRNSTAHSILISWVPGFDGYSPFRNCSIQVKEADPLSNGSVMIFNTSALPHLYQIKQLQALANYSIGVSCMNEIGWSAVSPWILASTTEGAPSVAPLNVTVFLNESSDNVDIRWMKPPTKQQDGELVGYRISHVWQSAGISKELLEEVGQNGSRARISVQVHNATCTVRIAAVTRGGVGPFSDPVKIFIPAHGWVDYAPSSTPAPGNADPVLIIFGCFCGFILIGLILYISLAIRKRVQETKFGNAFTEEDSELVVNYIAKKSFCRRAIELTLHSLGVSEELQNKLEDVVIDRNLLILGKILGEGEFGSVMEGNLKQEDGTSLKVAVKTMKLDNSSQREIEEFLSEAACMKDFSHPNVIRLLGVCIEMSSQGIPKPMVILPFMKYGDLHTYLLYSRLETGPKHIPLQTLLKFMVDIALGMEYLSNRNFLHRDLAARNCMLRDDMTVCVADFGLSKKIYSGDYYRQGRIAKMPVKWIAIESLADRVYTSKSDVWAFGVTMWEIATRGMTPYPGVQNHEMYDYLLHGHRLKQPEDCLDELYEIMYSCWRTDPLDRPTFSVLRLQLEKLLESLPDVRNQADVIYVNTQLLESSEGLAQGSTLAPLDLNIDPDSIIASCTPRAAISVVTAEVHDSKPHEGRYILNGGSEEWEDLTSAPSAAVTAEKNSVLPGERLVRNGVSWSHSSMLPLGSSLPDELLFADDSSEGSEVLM

The structures appear in SMILES notation. A value given as a limit tells only on which side of the number the result lay.

As a reminder, the IC50 is the concentration at which inhibition is half-maximal. A low value points to greater potency in that assay.

Turning to `COCCOc1nc(Nc2ccc(CN3CCN(C)CC3)cc2)nc2[nH]cc(-c3ccc4c(n3)CN(C)S4(=O)=O)c12`, the IC50 in test [1] is < 30 nM; in test [2], > 1000 nM.
With `COc1nc(Nc2ccc(CN3CCC(C)CC3)cc2)nc2[nH]cc(-c3ccc(F)cc3F)c12`, the IC50 in test [1] was < 30 nM.

Values taken from ChEMBL document CHEMBL5729244, “Heterocycle compounds as Tyro3, Axl and MerTK (TAM) family of receptor tyrosine kinase inhibitors” (2022).
